{"source": "paper PMC9612427", "about": "(Journal of the American Chemical Society, 2022)", "key": {"P-glycoprotein (MDR1)": {"target": "P-glycoprotein (MDR1) (Homo sapiens, UniProt P08183)", "sequence (P08183 whole entry)": "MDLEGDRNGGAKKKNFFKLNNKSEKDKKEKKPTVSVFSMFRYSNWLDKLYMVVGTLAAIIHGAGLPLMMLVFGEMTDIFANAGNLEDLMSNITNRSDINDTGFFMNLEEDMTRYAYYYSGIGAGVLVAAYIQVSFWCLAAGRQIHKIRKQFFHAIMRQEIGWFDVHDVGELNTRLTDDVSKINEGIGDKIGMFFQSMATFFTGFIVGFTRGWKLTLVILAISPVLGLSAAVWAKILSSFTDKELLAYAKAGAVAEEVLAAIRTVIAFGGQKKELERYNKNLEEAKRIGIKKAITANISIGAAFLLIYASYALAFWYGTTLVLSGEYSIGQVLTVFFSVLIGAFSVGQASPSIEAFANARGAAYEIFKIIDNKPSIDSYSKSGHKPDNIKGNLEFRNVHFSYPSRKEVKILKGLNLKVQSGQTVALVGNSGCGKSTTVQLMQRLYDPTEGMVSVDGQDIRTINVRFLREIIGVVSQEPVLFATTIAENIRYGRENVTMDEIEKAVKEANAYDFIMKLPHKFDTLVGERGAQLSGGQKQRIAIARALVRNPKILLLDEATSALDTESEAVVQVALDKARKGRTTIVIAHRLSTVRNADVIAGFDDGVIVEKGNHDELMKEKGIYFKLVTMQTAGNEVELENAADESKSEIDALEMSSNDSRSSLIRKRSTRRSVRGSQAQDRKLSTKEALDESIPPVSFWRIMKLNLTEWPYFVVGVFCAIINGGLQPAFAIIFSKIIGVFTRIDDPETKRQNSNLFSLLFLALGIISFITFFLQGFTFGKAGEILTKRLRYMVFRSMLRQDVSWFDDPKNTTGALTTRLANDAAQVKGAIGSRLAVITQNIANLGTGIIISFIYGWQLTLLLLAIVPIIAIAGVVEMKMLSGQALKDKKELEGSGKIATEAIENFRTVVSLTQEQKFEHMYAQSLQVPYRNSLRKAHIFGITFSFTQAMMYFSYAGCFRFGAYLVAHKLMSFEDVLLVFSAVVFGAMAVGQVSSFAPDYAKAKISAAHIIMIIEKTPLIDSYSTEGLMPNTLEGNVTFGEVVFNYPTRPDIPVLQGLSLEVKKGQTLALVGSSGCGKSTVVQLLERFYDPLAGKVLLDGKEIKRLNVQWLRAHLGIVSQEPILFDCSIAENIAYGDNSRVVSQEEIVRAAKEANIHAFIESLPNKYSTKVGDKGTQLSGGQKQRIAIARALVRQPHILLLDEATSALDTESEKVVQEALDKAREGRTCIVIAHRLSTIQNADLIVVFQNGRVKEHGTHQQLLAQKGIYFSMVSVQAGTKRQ", "assay": "MDR1-MDCK transwell assay", "settings": "for efflux ratio (ER): 10 μM compound, 90 min, substrate when ER ≥ 2.0"}, "[1]": {"assay": "BBB penetrance: brain and serum drug levels after single IV injection", "assay_type": "in vivo, mice", "settings": "for Kp at 60 min: mouse, brain and serum, iv, 25 mg/kg"}, "[2]": {"test_system": "V600E BRAF tumors in the brain", "settings": "cited from earlier work"}, "[3]": {"test_system": "intracranially implanted A375 melanoma cells", "assay": "A375 intracranial mouse model of metastatic melanoma", "assay_type": "in vivo", "settings": "50 mg/kg IP once a day, two cycles of 5 days, 10 doses; athymic nude mice"}, "P-gp [4]": {"test_system": "P-gp", "assay": "P-gp in vivo assay", "settings": "mice"}, "[5]": {"test_system": "MAPK signaling (phospho-MEK1/2, phospho-ERK1/2) in A375 cells", "assay": "MEK1/2 and ERK1/2 phosphorylation", "assay_type": "cell-based", "settings": "for inhibition of ERK1/2 phosphorylation after 24 h: highest concentrations (10 μM)"}, "P-gp [6]": {"target": "P-gp (Homo sapiens, UniProt P08183)", "sequence (P08183 whole entry)": "as above", "assay": "calcein-AM P-gp inhibition assay in MDR1-MDCK cells", "assay_type": "cell-based"}, "[7]": {"test_system": "MAPK signaling in CHL-1, a WT BRAF melanoma cell line", "assay": "MEK1/2 and ERK1/2 phosphorylation", "assay_type": "cell-based", "settings": "CHL-1 (WT BRAF), 1 h, identical treatment"}, "[8]": {"test_system": "AM-38 (V600E BRAF) and U118MG, T98G, U87 (WT BRAF) glioma cell lines", "assay": "cell culture cytotoxicity against glioma cell lines", "assay_type": "cell-based"}, "cell lines with WT BRAF": {"test_system": "cell lines with WT BRAF", "assay": "72 h cell viability assay, cell lines with WT BRAF", "assay_type": "cell-based", "settings": "read-out: IC50, cell lines with WT BRAF"}, "[9]": {"test_system": "V600E BRAF melanoma cell lines", "assay": "72 h cell viability assay, panel of V600E BRAF melanoma cell lines", "assay_type": "cell-based", "settings": "read-out: IC50, panel of V600E BRAF melanoma cell lines"}}}
{"smiles": "Cn1cnc2c(F)c(Nc3ccc(Br)cc3F)c(C(=O)NOCCO)cc21", "note": "[binimetinib]", "values": [{"measurement": "efflux ratio (ER)", "setting": "P-glycoprotein (MDR1); MDR1-MDCK transwell", "result": "high ERs"}]}
{"smiles": "CC(C)(C)c1nc(-c2cccc(NS(=O)(=O)c3c(F)cccc3F)c2F)c(-c2ccnc(N)n2)s1", "note": "[dabrafenib]", "values": [{"measurement": "Kp at 60 min", "setting": "[1]", "result": "0.0014 to 0.0069"}, {"measurement": "duration of intracranial response", "setting": "[2]; combined with trametinib, melanoma brain metastases, clinical trials", "result": 6.5, "unit": "months"}, {"measurement": "median survival", "setting": "[3]", "result": 39, "unit": "days"}, {"measurement": "fold increase of brain-to-serum ratio by P-gp inhibition (elacridar)", "setting": "P-gp [4]; 15 min, 2.5 mg/kg elacridar IV 30 min before 25 mg/kg compound IV", "result": 4.3, "unit": "fold"}, {"measurement": "inhibition of ERK1/2 phosphorylation after 24 h", "setting": "[5]", "result": "diminished inhibition"}]}
{"smiles": "CCCS(=O)(=O)Nc1ccc(F)c(C(=O)c2c[nH]c3ncc(-c4ccc(Cl)cc4)cc23)c1F", "note": "[vemurafenib]", "values": [{"measurement": "patients responding", "setting": "[2]; pleomorphic xanthoastrocytoma patients, histology agnostic trial", "result": "four out of seven"}, {"measurement": "efflux ratio (ER)", "setting": "P-glycoprotein (MDR1); MDR1-MDCK transwell", "result": "high ERs"}]}
{"smiles": "COc1cc2c(cc1OC)CN(CCc1ccc(NC(=O)c3cccc4c(=O)c5cccc(OC)c5[nH]c34)cc1)CC2", "note": "[elacridar]", "values": [{"measurement": "P-gp inhibition (calcein-AM fluorescence)", "setting": "P-gp [6]", "result": "robust inhibition"}]}
{"smiles": "C=C[C@H]1C[N@@]2CC[C@H]1C[C@@H]2[C@@H](O)c1ccnc2ccc(OC)cc12", "note": "[quinidine]", "values": [{"measurement": "efflux ratio (ER)", "setting": "P-glycoprotein (MDR1); MDR1-MDCK transwell", "result": "high ERs"}, {"measurement": "P-gp inhibition (calcein-AM fluorescence)", "setting": "P-gp [6]", "result": "robust inhibition"}]}
{"smiles": "CC(C)(C)c1ccc(C(O)CCCN2CCC(C(O)(c3ccccc3)c3ccccc3)CC2)cc1", "note": "(stereo not shown) [terfenadine]", "values": [{"measurement": "Papp at 90 min, 10 μM", "setting": "P-glycoprotein (MDR1); human, MDCK-MDR1", "result": 12, "unit": "nm/s"}]}
{"smiles": "CCCS(=O)(=O)Nc1cc(Cl)cc(-c2nc(C(C)(C)C)sc2-c2ccnc(N)n2)c1F", "note": "[everafenib]", "values": [{"measurement": "brain-to-serum ratio", "setting": "[1]; mice, 60 min after single 25 mg/kg IV injection", "result": "0.286 ng/g:ng/mL"}, {"measurement": "permeability (Papp)", "setting": "P-glycoprotein (MDR1); MDR1-MDCK transwell, A–B and B–A directions", "result": "49 to 64", "unit": "nm/s"}, {"measurement": "median survival", "setting": "[3]", "result": 50.5, "unit": "days"}, {"measurement": "inhibition of MAPK signaling", "setting": "[7]", "result": "not observed"}, {"measurement": "potentiation of brain penetrance with elacridar", "setting": "P-gp [4]; time not given", "result": "did display potentiation with elacridar"}, {"measurement": "cytotoxicity against AM-38", "setting": "[8]; AM-38, glioblastoma cell line with V600E BRAF", "result": "comparable cytotoxicity to dabrafenib"}, {"measurement": "activity against glioma cell-lines with WT BRAF", "setting": "[8]; U118MG, T98G, U87", "result": "no activity"}, {"measurement": "IC50", "setting": "cell lines with WT BRAF", "result": "> 1", "unit": "µM"}, {"measurement": "IC50", "setting": "[9]", "result": "0.002 to 0.01", "unit": "µM"}, {"measurement": "inhibition of MAPK signaling (MEK1/2 and ERK1/2 phosphorylation)", "setting": "[5]; 1 h, 1 μM everafenib, 10 μM everafenib-CO2H", "result": "strongly inhibited"}, {"measurement": "inhibition of ERK1/2 phosphorylation after 24 h", "setting": "[5]", "result": "sustained"}]}
{"smiles": "CCCS(=O)(=O)Nc1ccc(F)c(C(=O)c2c[nH]c3ncc(Cl)cc23)c1F", "note": "[PLX4720]", "values": [{"measurement": "Kp at 60 min", "setting": "[1]", "result": "0.0014 to 0.0069"}, {"measurement": "inhibition of ERK1/2 phosphorylation after 24 h", "setting": "[5]", "result": "diminished inhibition"}]}
{"smiles": "COC(=O)c1cn2c3c(c(N4CCN(C)CC4)c(F)cc3c1=O)OC[C@@H]2C", "note": "[compound 7]", "values": [{"measurement": "efflux ratio (ER)", "setting": "P-glycoprotein (MDR1); MDR1-MDCK transwell", "result": 5.66}]}
{"smiles": "COc1cc2nc(N3CCN(C(=O)c4ccco4)CC3)nc(N)c2cc1OC", "note": "[prazosin]", "values": [{"measurement": "efflux ratio (ER)", "setting": "P-glycoprotein (MDR1); MDR1-MDCK transwell", "result": "high ERs"}]}
{"smiles": "COC(=O)N[C@@H](C)CNc1nccc(-c2cn(C(C)C)nc2-c2cc(Cl)cc(NS(C)(=O)=O)c2F)n1", "note": "[encorafenib]", "values": [{"measurement": "Kp at 60 min", "setting": "[1]", "result": "0.0014 to 0.0069"}]}
